According to US20060148776A1, “Drug formulations having long and medium chain triglycerides” (Conforma Therapeutics Corporation, priority 2003, published 2006):

Columns and labels:
[1] = Characterisation and storage stability of 17-AAG emulsion (droplet size, drug load, degradants); type: physicochemical
Procedure: EDTA (disodium, dihydrate, USP), sucrose, and water for injection (WFI) are weighed into a 5 L polypropylene beaker and stirred until the solids are dissolved. The aqueous phase is then added to the oil phase and thorough mixing effected using a high-speed emulsifier equipped with an emulsion head at 5000 RPM until the oil adhering to the surface is “stripped off.” Shearing rate is then increased to 10000 RPM for 2-5 minutes to obtain a uniform primary emulsion. Laser light scattering (LLS) may be used to measure the average droplet size, and the solution may further be checked, e.g., under an optical microscope to determine the relative presence or absence of crystals and solids.
The emulsion pH is adjusted to 6.0±0.2 with 0.2N NaOH. The primary emulsion is then passed through a Model 11OS microfluidizer (Microfluidics Inc., Newton, Mass., USA) operating at static pressure of about 110 psi (operating pressure of 60-95 psi) with a 75-micron emulsion interaction chamber (F20Y) for 6-8 passages until the average droplet size is ≦190 nm. LLS may be used following the individual passages to evaluate progress. The solution may further be checked for the presence of crystals using polarized light under an optical microscope.

[2] = daily 1-hour infusion for 5 days every three weeks; cited from earlier work

C=CCNC1=C2CC(C)CC(OC)C(O)C(C)/C=C(\C)C(OC(N)=O)C(OC)/C=C\C=C(/C)C(=O)NC(=CC1=O)C2=O (stereo not shown) [Compound 17-AAG, 17-allylaminogeldanamycin]
concentration achieved in the oil phase alone ([1]; oil phase alone): 20000 to 30000 µg/mL
time until degradants of 17-AAG are seen ([1]; stored at 40° C.): approximately 2 weeks
concentration achieved overall ([1]; whole emulsion): ≤ 3000 µg/mL
maximum tolerated dose (MTD) [2]: 40 mg/m^2
